The results in this text go back to ChEMBL document CHEMBL1143770, “Mono, di and tri-mannopyranosyl phosphates as mannose-1-phosphate prodrugs for potential CDG-Ia therapy” (Bioorg Med Chem Lett, 2007).

Where only a bound is given, the exact number is not on record here.

Data set [1] is described as follows: Inhibition 2[3H]mannose incorporation into glycoconjugates in lymphoblasts isolated from congenital disorders of glycosylation-Ia patient at 300 uM. The data set is classed as functional. Conditions: Homo sapiens, Lymphoblast.
Data set [2] is described as follows: Cytotoxicity in human lymphoblasts assessed as release of cellular lactate dehydrogenase at 300 uM after 16 hrs relative to methanol. The data set is classed as cell-based. The note with it: lymphoblast.

As a reminder, the inhibition is the change of the read-out against control, counted positive when it falls. As for `CC(=O)OC[C@H]1O[C@H](OP(=O)(Oc2ccccc2)O[C@H]2O[C@H](COC(C)=O)[C@@H](OC(C)=O)[C@H](OC(C)=O)[C@@H]2OC(C)=O)[C@@H](OC(C)=O)[C@@H](OC(C)=O)[C@@H]1OC(C)=O` (single isomer, unassigned), testing at 300 µM in data set [1] gave an inhibition of 26%.
As to `CC(=O)OC[C@H]1O[C@H](OP(=O)(Oc2cccc3ccccc23)O[C@H]2O[C@H](COC(C)=O)[C@@H](OC(C)=O)[C@H](OC(C)=O)[C@@H]2OC(C)=O)[C@@H](OC(C)=O)[C@@H](OC(C)=O)[C@@H]1OC(C)=O` (single isomer, unassigned), the Activity result in data set [2] is listed as “<= 25%”. Also, 300 µM produced 56% inhibition in data set [1].
Turning to `CC(C)C(=O)OC[C@H]1O[C@H](OP(=O)(Oc2ccccc2)O[C@H]2O[C@H](COC(=O)C(C)C)[C@@H](OC(=O)C(C)C)[C@H](OC(=O)C(C)C)[C@@H]2OC(=O)C(C)C)[C@@H](OC(=O)C(C)C)[C@@H](OC(=O)C(C)C)[C@@H]1OC(=O)C(C)C` (single isomer, unassigned), the inhibition at 300 µM in data set [1] came out at 78%.
The same measure, in the same setting: for `CCCC(=O)OC[C@H]1O[C@H](OP(=O)(OCc2ccccc2)O[C@H]2O[C@H](COC(=O)CCC)[C@@H](OC(=O)CCC)[C@H](OC(=O)CCC)[C@@H]2OC(=O)CCC)[C@@H](OC(=O)CCC)[C@@H](OC(=O)CCC)[C@@H]1OC(=O)CCC` (single isomer, unassigned) the value was 71%.
